Test results reported in PMC9694777, “Fractionation and Extraction Optimization of Potentially Valuable Compounds and Their Profiling in Six Varieties of Two Nicotiana Species” (Molecules, 2022).

Assay: physchem
Excerpt: Determination of the small molecule content in a complex plant matrix depends on the understanding of minimum solubility in the chosen extraction solvent. […] Often, tests on mixture are hardly reproducible on pure compounds if this aspect is not routinely considered in the workflow. We performed a general testing of best solvent systems to compare a wide range of small molecules of interest to understand the limitations of general approaches within a complex plant matrix such as Nicotiana.
For each of the 29 reference compounds, 2 mg was weighed into a 15 mL glass tube and dissolved in the minimum amount of the test solvent by gradually adding the solvent with a micropipette until complete dissolution or to a final volume of 10.0 mL. Seven solvents with polarities from nonpolar to polar were chosen for the test: hexane (C6H14), CH2Cl2, CH2Cl2/MeOH (4:1, v/v), EtOH, MeOH, MeOH/H2O (7:3, v/v), and H2O. The consumed solvents and their volumes were recorded for each reference compound.

Vitamin E
Solubility in C6H14: 215 mg/mL | Solubility in CH2Cl2: 208 mg/mL | Solubility in CH2Cl2/MeOH (4:1): 241 mg/mL | Solubility in EtOH: 43.0 mg/mL | Solubility in H2O: NS (key: NS: not soluble, insoluble in the solvent at the tested concentration range (0.19–558 mg/mL)) | Solubility in MeOH: 31.2 mg/mL | Solubility in MeOH/H2O (7:3): 0.23 mg/mL
